Literature values, collected in patent publication US20020013320A1, “Use of growth hormone secretagogues to treat systemic lupus erythematosus and inflammatory bowel disease” (priority 2000, published 2002).
Where a SMILES comes first, the peptide text is derived from it. [ ]: non-standard residue; d: D form. d2Nal = N[C@H](Cc1ccc2ccccc2c1)C(=O)O; Aib = CC(C)(N)C(=O)O

What was measured:
[1] = adult female rats
[2] = canines during remobilization
[3] = oral treatment, obese young males

Molecule	bone mass [1]	levels of serum insulin-like growth factor-1 [2]	size and strength of the quadriceps muscle [2]	markers of bone formation and bone resorption [3]
CC(C)(N)C(=O)N[C@@H](Cc1c[nH]cn1)C(=O)N[C@H](Cc1ccc2ccccc2c1)C(=O)N[C@H](Cc1ccccc1)C(=O)N[C@@H](CCCCN)C(N)=O [Ipamorelin] (H-[Aib]H[d2Nal][dF]K-NH2)	have the capacity to increase bone mass			
CC(C)(N)C(=O)N[C@H](COCc1ccccc1)C(=O)N1CCC2(CC1)CN(S(C)(=O)=O)c1ccccc12 [MK-0677]		elevated	increased	increases
GHRP-6	have the capacity to increase bone mass			
